Consider 24 compounds from patent US10351578B2, “Heterocyclic-substituted pyridinopyrimidinone derivative as CDK inhibitor and use thereof” (Shanghai Xunhe Pharmaceutical Technology Co. Ltd., priority 2016, dated 2019).

Some results are limits rather than exact numbers.

Test [1] deals with T1, CDK4 protein kinase (GST-CDK4(1-303 end)) (Homo sapiens, UniProt P11802).
T1 construct: GST-CDK4(1-303 end); GST (N)
The experiment in a line: CDK4 protein kinase activity, Caliper mobility shift assay. The conditions noted are these: substrate Peptide FAM-P8, 28° C. for 3 h. In kind it is biochemical. On the procedure: (§1) Activity Assay: The CDK4 protein kinase activity was measured using the Caliper mobility shift assay (see J. Biomol. Screen, 2009, PP31). The test compound was dissolved in DMSO and diluted with a kinase buffer solution (20 mM HEPES-pH 7.5, 0.01% Triton X-100, 10 mM MgCl2, 2 mM DTT) and 5 μL of the compound at 5-fold final concentration of reaction dissolved in 10% DMSO was added in a 384-well plate. The compound-free control well was 5 μL of 10% DMSO, and the no-activity control well was 5 μL of kinase buffer. 10 μL of a 2.5-fold diluted CDK4 enzyme solution (GST-CDK4(1-303 end)) was added and incubated at room temperature for 10 min, and then 10 μL of the 2.5-fold diluted substrate solution Peptide FAM-P8 was added. The reaction was stopped by adding 25 μL of stop solution after incubation at 28° C. for 3 h, and the conversion rate data was read on a Caliper EZ Reader II (Caliper Life Sciences) and the conversion rate was converted to inhibition rate data according to above method. Among them, the inhibition rate %=(max−conversion)/(max−min)×100%.

Test [2] addresses T2, CDK6 protein kinase (GST-CDK6(1-326 end)) (Homo sapiens, UniProt Q00534).
T2 construct: GST-CDK6(1-326 end); GST (N)
Put plainly: CDK6 protein kinase activity, Caliper mobility shift assay. The test is classed as biochemical. The conditions noted are these: substrate Peptide FAM-P8, 28° C. for 3 h. Here is the method: as §1, with “CDK6” for “CDK4”, “(GST-CDK6(1-326” for “(GST-CDK4(1-303”

T2 sequence (Q00534 whole entry): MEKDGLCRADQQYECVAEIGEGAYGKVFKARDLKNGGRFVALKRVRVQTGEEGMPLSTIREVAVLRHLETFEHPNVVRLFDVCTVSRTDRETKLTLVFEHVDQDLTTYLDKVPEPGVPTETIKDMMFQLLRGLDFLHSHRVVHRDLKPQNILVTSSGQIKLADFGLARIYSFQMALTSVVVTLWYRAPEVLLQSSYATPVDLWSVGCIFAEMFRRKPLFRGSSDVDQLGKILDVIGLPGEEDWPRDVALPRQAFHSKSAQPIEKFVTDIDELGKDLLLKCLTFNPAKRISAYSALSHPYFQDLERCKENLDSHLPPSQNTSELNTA
T2 sequence (P30281 whole entry partner): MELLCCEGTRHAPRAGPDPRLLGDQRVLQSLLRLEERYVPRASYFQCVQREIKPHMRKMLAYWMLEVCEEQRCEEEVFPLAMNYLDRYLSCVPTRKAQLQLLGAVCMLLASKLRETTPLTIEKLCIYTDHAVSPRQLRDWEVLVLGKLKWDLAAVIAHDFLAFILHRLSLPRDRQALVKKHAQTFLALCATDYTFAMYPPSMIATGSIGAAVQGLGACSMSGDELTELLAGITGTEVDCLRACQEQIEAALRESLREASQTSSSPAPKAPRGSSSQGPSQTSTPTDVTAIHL
T1 sequence (P11802 whole entry): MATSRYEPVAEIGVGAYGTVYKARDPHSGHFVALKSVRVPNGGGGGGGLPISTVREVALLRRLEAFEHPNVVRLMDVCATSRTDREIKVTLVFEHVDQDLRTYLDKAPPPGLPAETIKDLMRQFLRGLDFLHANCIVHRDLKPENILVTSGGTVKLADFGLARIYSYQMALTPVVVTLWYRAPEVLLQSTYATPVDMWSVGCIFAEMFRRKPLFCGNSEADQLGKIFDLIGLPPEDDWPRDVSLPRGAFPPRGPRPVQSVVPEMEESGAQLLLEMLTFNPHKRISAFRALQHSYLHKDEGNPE
T1 sequence (P30281 whole entry partner): as the sequence (P30281 whole entry partner) above

One may read the IC50 as the midpoint of a concentration-inhibition curve. As for `CC1(C)Oc2cnc(Nc3ccc(N4CCN(C5CCCCC5)CC4)cn3)nc2N(C2CCCC2)C1=O` [Compound I-22, 6,6-dimethyl-8-cyclopentyl-2-(5-(4-cyclohexyl-1-piperazinyl)-pyridin-2-amino)-6H-pyrimido[5,4-b][1,4]oxazin-7(8H)-one], the IC50 in test [1] and in test [2] was at most 20 nM in each case.
Regarding `O=C1N(C2CCCC2)c2nc(Nc3ccc(N4CCNCC4)cn3)ncc2OC12CCCC2` [Compound I-6, 8′-cyclopentyl-2′-(5-(1-piperazinyl)-pyridin-2-amino)spiro[cyclopenta-1,6′-pyrimido[5,4-b][1,4]oxazin]-7′(8′H)-one], the IC50 in test [1] was at most 20 nM; in test [2], 20 to 100 nM.
Consider “8′-cyclopentyl-2′-(5-(4-ethyl-1-piperazinyl)-pyridin-2-amino)spiro[cycloprop-1,6′-pyrimido[5,4-b][1,4]oxazin]-7′(8′H)-one [Compound I-25]”, for which the concentration for half-maximal inhibition (IC50) in test [1] and in test [2] was at most 20 nM each time.
Take `CC(C)N1C(=O)C(C)(C)Oc2cnc(Nc3ccc(N4CCNCC4)cn3)nc21` [Compound I-1, 6,6-Dimethyl-8-isopropyl-2-(5-(1-piperazinyl)-pyridin-2-amino)-6H-pyrimido[5,4-b][1,4]oxazin-7(8H)-one]: the concentration for half-maximal inhibition (IC50) in test [1] and in test [2] was at most 20 nM in each case.
For the compound `CC1(C)Oc2cnc(Nc3ccc(N4CCN(C5CCC5)CC4)cn3)nc2N(C2CCCC2)C1=O` [Compound I-20, 6,6-dimethyl-8-cyclopentyl-2-(5-(4-cyclobutyl-1-piperazinyl)-pyridin-2-amino)-6H-pyrimido[5,4-b][1,4]oxazin-7(8H)-one], the IC50 in test [1] and in test [2] was at most 20 nM in each case.
For `CCN1CCN(Cc2ccc(Nc3ncc4c(n3)N(C3CCCC3)C(=O)C(C3CCC3)O4)nc2)CC1` (stereo not drawn) [Compound I-14, 6-cyclobutyl-8-cyclopentyl-2-(5-(4-ethyl-1-piperazinyl)methyl-pyridin-2-amino)-6H-pyrimido[5,4-b][1,4]oxazin-7(8H)-one], the IC50 in test [1] and in test [2] was at most 20 nM each time.
Turning to `CCN1CCN(Cc2ccc(Nc3ncc4c(n3)N(C)C(=O)C(C(C)C)O4)nc2)CC1` (stereo not drawn) [Compound I-15, 6-isopropyl-8-methyl-2-(5-(4-ethyl-1-piperazinyl)methyl-pyridin-2-amino)-6H-pyrimido[5,4-b][1,4]oxazin-7(8H)-one], the half-inhibitory concentration (IC50) is at most 20 nM in test [1] and 20 to 100 nM in test [2].
In the same order, the values of `CC1(C)Oc2cnc(Nc3ccc(N4CCNCC4)cn3)nc2N(c2cccs2)C1=O` [Compound I-29, 6,6-dimethyl-8-(2-thienyl)-2-(5-(1-piperazinyl)-pyridin-2-amino)-6H-pyrimido[5,4-b][1,4]oxazin-7(8H)-one] are at most 20 nM and at most 20 nM.
As to `CCN1CCN(Cc2ccc(Nc3ncc4c(n3)N(C3CCCC3)C(=O)C(C)(C)O4)nc2)CC1` [Compound I-3, 6,6-Dimethyl-8-cyclopentyl-2-(5-(4-ethyl-1-piperazinyl)methyl-pyridin-2-amino)-6H-pyrimido[5,4-b][1,4]oxazin-7(8H)-one], the IC50 in test [1] and in test [2] was at most 20 nM throughout.
`O=C1N(C2CCCC2)c2nc(Nc3ccc(N4CCNCC4)cn3)ncc2OC12CC2` [Compound I-4, 8′-cyclopentyl-2′-(5-(1-piperazinyl)-pyridin-2-amino)spiro[cycloprop-1,6′-pyrimido[5,4-b][1,4]oxazin]-7′(8′H)-one]: the results for the IC50 in test [1] and in test [2] were at most 20 nM and 20 to 100 nM, respectively.
As to `CCC(CC)N1C(=O)C(C)(C)Oc2cnc(Nc3ccc(CN4CCN(CC)CC4)cn3)nc21` [Compound I-38, 6,6-dimethyl-8-(3-pentyl)-2-(5-(4-ethyl-1-piperazinyl)methyl-pyridine-2-amino)-6H-pyrimido[5,4-b][1,4]oxazin-7(8H)-one], the concentration for half-maximal inhibition (IC50) in test [1] was at most 20 nM; in test [2], 20 to 100 nM.
Turning to `O=C1N(C2CCCC2)c2nc(Nc3ccc(N4CCNCC4)cn3)ncc2OC1(F)F` [Compound I-12, 6,6-difluoro-8-cyclopentyl-2-(5-(1-piperazinyl)-pyridin-2-amino)-6H-pyrimido[5,4-b][1,4]oxazin-7(8H)-one], the IC50 is at most 20 nM in test [1] and 20 to 100 nM in test [2].
For the compound `CC1(C)Oc2cnc(Nc3ccc(N4CCNCC4)cn3)nc2N(c2ccco2)C1=O` [Compound I-32], the results for the half-maximal inhibitory concentration (IC50) in test [1] and in test [2] were at most 20 nM and over 500 nM, respectively.
Regarding `CCCN1CCN(Cc2ccc(Nc3ncc4c(n3)N(C(C)C(C)C)C(=O)C(C3CCCCCC3)S4)nc2)CC1` (stereo not drawn) [Compound I-19, 6-cycloheptyl-8-(3-methyl-2-butyl)-2-(5-(4-n-propyl-1-piperazinyl)methyl-pyridine-2-amino)-6H-pyrimido[5,4-b][1,4]thiazin-7(8H)-one], the IC50 was at most 20 nM in test [1] and 20 to 100 nM in test [2].
Regarding `CC1(C)Oc2cnc(Nc3ccc(N4CCN(C5CCCC5)CC4)cn3)nc2N(C2CCCC2)C1=O` [Compound I-21, 6,6-dimethyl-8-cyclopentyl-2-(5-(4-cyclopentyl-1-piperazinyl)-pyridin-2-amino)-6H-pyrimido[5,4-b][1,4]oxazin-7(8H)-one], the IC50 in test [1] is at most 20 nM; in test [2], 20 to 100 nM.
With `CCC(CC)N1C(=O)C(C)(C)Oc2cnc(Nc3ccc(N4CCNCC4)cn3)nc21` [Compound I-37, 6,6-dimethyl-8-(3-pentyl)-2-(5-(1-piperazinyl)-pyridin-2-amino)-6H-pyrimido[5,4-b][1,4]oxazin-7(8H)-one], the results for the IC50 in test [1] and in test [2] were at most 20 nM and 20 to 100 nM, respectively.
Regarding `O=C1C(C(F)(F)F)Oc2cnc(Nc3ccc(N4CCNCC4)cn3)nc2N1C1CCCC1` (stereo not drawn) [Compound I-11, 6-trifluoromethyl-8-cyclopentyl-2-(5-(1-piperazinyl)-pyridin-2-amino)-6H-pyrimido[5,4-b][1,4]oxazin-7(8H)-one], the IC50 in test [1] is at most 20 nM; in test [2] it was 20 to 100 nM.
Consider `CCC(C)N1C(=O)C(C2CCCC2)Sc2cnc(Nc3ccc(CN4CCNCC4)cn3)nc21` (stereo not drawn) [Compound I-17, 6-cyclopentyl-8-sec-butyl-2-(5-(1-piperazinyl)methyl-pyridin-2-amino)-6H-pyrimido[5,4-b][1,4]thiazin-7(8H)-one], for which the 50% inhibitory concentration (IC50) was at most 20 nM in test [1] and over 500 nM in test [2].
As to `CC(C)N1CCN(c2ccc(Nc3ncc4c(n3)N(C3CCCC3)C(=O)C(C)(C)S4)nc2)CC1` [Compound I-24, 6,6-dimethyl-8-cyclopentyl-2-(5-(4-isopropyl-1-piperazinyl)-pyridin-2-amino)-6H-pyrimido[5,4-b][1,4]thiazin-7(8H)-one], the IC50 in test [1] and in test [2] was at most 20 nM throughout.
For `CC1(C)Sc2cnc(Nc3ccc(N4CCN(C5CCCCCC5)CC4)cn3)nc2N(C2CCCC2)C1=O` [Compound I-23, 6,6-dimethyl-8-cyclopentyl-2-(5-(4-cycloheptyl-1-piperazinyl)-pyridin-2-amino)-6H-pyrimido[5,4-b][1,4]thiazin-7(8H)-one], the IC50 in test [1] and in test [2] was at most 20 nM throughout.
With `O=C1N(C2CCCC2)c2nc(Nc3ccc(N4CCNCC4)cn3)ncc2OC12CCC2` [Compound I-5, 8′-cyclopentyl-2′-(5-(1-piperazinyl)-pyridin-2-amino)spiro[cyclobut-1,6′-pyrimido[5,4-b][1,4]oxazin]-7′(8′H)-one], the IC50 in test [1] is at most 20 nM; in test [2], 20 to 100 nM.
With `CC1(C)Oc2cnc(Nc3ccc(N4CCNCC4)cn3)nc2N(c2ccccc2)C1=O` [Compound I-35, 6,6-dimethyl-8-phenyl-2-(5-(1-piperazinyl)-pyridin-2-amino)-6H-pyrimido[5,4-b][1,4]oxazin-7(8H)-one], the IC50 in test [1] and in test [2] was 20 to 100 nM throughout.
`CCC(C)(C)N1C(=O)C(C2CCCCC2)Oc2cnc(Nc3ccc(CN4CCN(C5CC5)CC4)cn3)nc21` (stereo not drawn) [Compound I-18, 6-cyclohexyl-8-tert-amyl-2-(5-(4-cyclopropyl-1-piperazinyl)methyl-pyridin-2-amino)-6H-pyrimido[5,4-b][1,4]oxazin-7(8H)-one]: the IC50 in test [1] and in test [2] was at most 20 nM throughout.
With `CCN1C(=O)C(C)(CC)Oc2cnc(Nc3ccc(CN4CCN(C)CC4)cn3)nc21` (stereo not drawn) [Compound I-16, 6-methyl-6,8-diethyl-2-(5-(4-methyl-1-piperazinyl)methyl-pyridin-2-amino)-6H-pyrimido[5,4-b][1,4]oxazin-7(8H)-one], the half-inhibitory concentration (IC50) in test [1] and in test [2] was at most 20 nM in each case.
